Like-named read-outs stand apart in the source and are kept apart here.

The test system of series [1] is aconitine-induced ECG alterations. The experiment in a line: animal or person. The note with it: Rattus norvegicus; for change in vivo at 4 mg/kg / ED50: iv; for change in vivo at 4 mg/kg / change in vivo at 100 mg/kg: read-out: Effect % (antiarrhythmic); for change in vivo at 100 mg/kg: po; for ED50: read-out: ED50 iv. (antiarrhythmic). It counts as in vivo, rat. The method, then:
The test was carried out by using the modified method of Marmo et al. on rats weighing 160 to 200 g. The animals were narcotised by ethyl uretane (1.2 g/kg ip.). Aconitin was administered intravenously in a dose of 75 /ug/kg in the form of a bolus injection. The ECG alterations were monitored in standard II lead by 5 minutes after the administration of aconitine. The observed alterations were classified into classes 0 to 5. The compounds of the invention were administered 2 minutes or 60 minutes before the parenteral or oral administration of aconitine, respectively. […]
class 1: sometimes an extrasystole occurs class 2: each second one is an extrasystole class 3: extrasystoles in groups class 4: each one is an extrasystole class 5: fibrillation, death
(Marmo, E., DiGiacomo, S., Imperatore, A.: Arzeimittel-Forschung 20, 12/1970/)

Series [2] relates to peristalty of stomach and intestines. The experiment in a line: effect exerted on the peristalty of stomach and intestines (Stickney et al., carbon suspension). It counts as in vivo, mouse. The note with it: for ED50: Mus musculus, read-out: ED50 (antiperistaltic); for TI (therapeutic index): antiperistaltic. The method, then:
The antiperistaltic effect of the compounds was examined by the method of Stickney et al. on white mice of both sexes, weighing 20 to 25 g. The compounds to be tested were administered per os 60 minutes before the addition of carbon suspension to groups containing 10 mice each. The animals of the control groups were treated at the same time and in the same manner with the carrier only. The mice were killed 10 minutes after the addition of the carbon suspension, and the whole length of the intestines as well as the length of the intestines filled with carbon suspension were measured.

Series [3] can be described thus: acute toxicity test in mice (Litchfield and Wilcoxon). It counts as in vivo, mouse. The note with it: mouse, in vivo, po., 14 days observation. As to the method: The test for acute toxicity was carried out by using 10 white mice (CFLP strain) (both male and female), weighing 18 to 22 g in each dose group. The compounds of the invention were administered orally in a dose of 20 ml/kg.
The animals were kept in a plastic box on wood chips in a room of room temperature. They could consume tap water and standard mouse feed ad libitum. The toxicity data were determined by the method of Litchfield and Wilcoxon (Litchfield, J. T., Wilcoxon, F. W.: J. Pharmacol. Exp. Ther. 96, 99/1949/).

In series [4] the test system is hexobarbital narcosis. The experiment in a line: narcosis potentiating effect (hexobarbital sleeping time). As to conditions: for ED50: Mus musculus, po, read-out: ED50 (narcosis potentiation); for TI (therapeutic index): narcosis potentiation, mice, po.
Procedure: The narcosis potentiating effect of the compounds of the invention were examined on white mice, with 6 animals in each group. The mice were administered orally with the compounds of the invention, then both the control and the test groups were intravenously added 40 mg/kg of hexobarbital in order to make the mice sleep (Kaergard et al.).

`COc1ccc([C@@H]2Sc3ccccc3N(CCN(C)C)C(=O)[C@@H]2OC(C)=O)cc1` [Dilthiazem, reference compound]: the change in vivo at 4 mg/kg in series [1] was -27%.

For orientation: ED50 means the midpoint of the dose-response relation. As a reminder, the LD50 is the dose at which mortality reaches 50%. A low value points to a more toxic substance. For the compound `OC(CO/N=C1\CCCC\C1=C/c1ccccc1)CN1CCN(c2ccccc2)CC1` (racemic) [Example 5, R,S-2-(E)-Phenylmethylene-1-(E)-[3-(4-phenyl-1-piperazinyl)-2-hydroxy-propoxyimino]-cyclohexane], in series [2] (po., mice), the median effective dose (ED50) came to 70 mg/kg and the “TI (therapeutic index)” value worked out at 14. In series [3], this compound yielded a 50% lethal dose (LD50) at 336 h of over 1000 mg/kg.

With `OC(CO/N=C1\CCCC\C1=C/c1ccccc1)CN1CCN(c2ccc(Cl)cc2)CC1` (racemic) [Example 12, R,S-2-(E)-Phenylmethylene-1-(E)-{[4-(4-chlorophenyl)-1-piperazinyl]-2-hydroxy-propoxyimino}-cyclohexane], in series [2] (po., mice), the ED50 was about 200 mg/kg and the “TI (therapeutic index)” value is listed as “about 5”. This compound also registered a 50% lethal dose (LD50) at 336 h in series [3] of 1000 mg/kg.

Take `CC(C)NCC(O)COc1cccc2[nH]ccc12` (stereo not drawn) [Pindolol, reference compound]: the change in vivo at 100 mg/kg in series [1] was -52%.

For `Cc1cccc(C)c1OCC(C)N` (stereo not drawn) [Mexiletine, reference compound], the change in vivo at 4 mg/kg in series [1] is -21%.

Consider `COc1ccc(/C=C2\CCCCC\C2=N/OCC(O)CNC2CC2)cc1` (racemic) [Example 42, R,S-2-(E)-(4-Methoxyphenyl-methylene)-1-(E)-(3-cyclopropylamino-2-hydroxy-propoxyimino)-cycloheptane], for which, in series [4], the median effective dose (ED50) was 14.5 mg/kg and the “TI (therapeutic index)” value is reported as over 69. This compound also yielded a 50% lethal dose (LD50) at 336 h in series [3] of over 1000 mg/kg.

Consider `CC(C)NCC(O)COc1cccc2ccccc12` (stereo not drawn) [Propranolol, reference compound], for which, in series [1], the ED50 worked out at 5.81 mg/kg, the change in vivo at 4 mg/kg is -7% and the change in vivo at 100 mg/kg is -50%.

As to `OC(CNC1CC1)CO/N=C1\CCCC\C1=C/c1ccc(Cl)cc1` (racemic) [Example 27, R,S-2-(E)-(4-Chlorophenyl-methylene)-1-(E)-(3-cyclopropylamino-2-hydroxy-propoxyimino)-cyclohexane], in series [4], the median effective dose (ED50) came to 35 mg/kg and the “TI (therapeutic index)” value stood at 29. The same compound came in with an LD50 at 336 h in series [3] of about 1000 mg/kg.

Take `CCCNCC(O)CO/N=C1\CCCC\C1=C/c1c(Cl)cccc1Cl` (racemic) [Example 35, R,S-2-(E)-(2,6-Dichlorophenyl-methylene)-1-(E)-(3-propylamino-2-hydroxy-propoxyimino)-cyclohexane]: in series [4], the 50% effective dose (ED50) is 11.5 mg/kg and the “TI (therapeutic index)” value is recorded as 52. The compound also came in with a median lethal dose (LD50) at 336 h in series [3] of 600 mg/kg. Moreover, in series [1], the median effective dose (ED50) amounted to 1.84 mg/kg and the change in vivo at 4 mg/kg was -100%.

For `OC(CO/N=C1\CCCC\C1=C/c1ccccc1)CN1CCN(Cc2ccccc2)CC1` (racemic) [Example 6, R,S-2-(E)-Phenylmethylene-1-(E)-[3-(4-phenylmethyl-1-piperazinyl)-2-hydroxy-propoxyimino]-cyclohexane], in series [2] (po., mice), the ED50 was found to be 140 mg/kg and the “TI (therapeutic index)” value was found to be 7. Also, the LD50 at 336 h in series [3] was over 1000 mg/kg.

As for `CC(C)CNCC(O)CO/N=C1\CCCC\C1=C/c1ccc(Cl)cc1` (racemic) [Example 30, R,S-2-(E)-(4-Chlorophenyl-methylene)-1-(E)-[3-(2-methylpropylamino)-2-hydroxy-propoxyimino]-cyclohexane], in series [2] (po., mice), the ED50 was 130 mg/kg and the “TI (therapeutic index)” value was 8. The LD50 at 336 h in series [3] came to 1100 mg/kg.

Consider `CC(C)N(CC(O)CO/N=C1\CCCCCC\C1=C/c1ccccc1)C(C)C` (racemic) [Example 19, R,S-2-(E)-Phenylmethylene-1-(E)-{3-[bis(1-methylethyl)-amino]-2-hydroxy-propoxyimino}-cyclooctane], for which, in series [4], the ED50 was found to be 26 mg/kg and the “TI (therapeutic index)” value was 31. In series [3], this compound displayed an LD50 at 336 h of 800 mg/kg. Also, in series [1], the ED50 worked out at 3.29 mg/kg and the change in vivo at 4 mg/kg is -76%.

Take `CC(C)NCC(O)CO/N=C1\CCCC\C1=C/c1ccc(Cl)cc1` (racemic) [Example 28, R,S-2-(E)-(4-Chlorophenyl-methylene)-1-(E)-[3-(1-methylethylamino)-2-hydroxy-propoxyimino]-cyclohexane]: in series [4], the ED50 worked out at 75 mg/kg and the “TI (therapeutic index)” value turned out to be 20. This compound also gave an LD50 at 336 h in series [3] of 1500 mg/kg.

Turning to `CCCN(CCC)CC(O)CO/N=C1\CCCC\C1=C/c1ccc(Cl)c(Cl)c1` (racemic) [Example 34, R,S-2-(E)-(3,4-Dichlorophenyl-methylene)-1-(E)-(3-/bis-n-propyl/-amino-2-hydroxy-propoxyimino)-cyclohexane], in series [4], the ED50 came to 145 mg/kg and the “TI (therapeutic index)” value was over 7. This compound also came in with an LD50 at 336 h in series [3] of over 1000 mg/kg.

`COc1ccccc1/C=C1\CCCC\C1=N/OCC(O)CN1CCOCC1` (racemic) [Example 37, R,S-2-(E)-(2-Methoxyphenyl-methylene)-1-(E)-(3-morpholinyl-2-hydroxy-propoxyimino)-cyclohexane]: in series [4], the 50% effective dose (ED50) amounted to 50 mg/kg and the “TI (therapeutic index)” value is reported as over 20. In series [3], this compound had an LD50 at 336 h of over 1000 mg/kg.

Take `CC(C)N(CC(O)CO/N=C1\CCCCC\C1=C/c1ccccc1)C(C)C` (racemic) [Example 14, R,S-2-(E)-Phenylmethylene-1-(E)-{3-[bis-(1-methylethyl)-amino]-2-hydroxy-propoxyimino}-cycloheptane]: in series [4], the 50% effective dose (ED50) turned out to be 80 mg/kg and the “TI (therapeutic index)” value was 11. The compound also gave an LD50 at 336 h in series [3] of 900 mg/kg. Besides, in series [1], the 50% effective dose (ED50) is 1.64 mg/kg and the change in vivo at 4 mg/kg was -83%.

As to `CC(C)(C)NCC(O)CO/N=C1\CCCC\C1=C/c1ccccc1Cl` (racemic) [Example 23, R,S-(E)-(2-Chlorophenyl-methylene)-1-(E)-[3-(1,1-dimethylethylamino)-2-hydroxy-propoxyimino]-cyclohexane], in series [4], the ED50 came to 16 mg/kg and the “TI (therapeutic index)” value came out at 8. In series [3], this compound displayed an LD50 at 336 h of 130 mg/kg. Further, in series [1], the 50% effective dose (ED50) amounted to 0.36 mg/kg and the change in vivo at 4 mg/kg is -83%.

Regarding `OC(CO/N=C1\CCCC\C1=C/c1ccccc1)CN1CCCCC1` (racemic) [Example 9, R,S-2-(E)-Phenylmethylene-1-(E)-(3-piperidinyl-2-hydroxypropoxyimino)-cyclohexane], in series [4], the ED50 was found to be 30 mg/kg and the “TI (therapeutic index)” value came out at 23. The same compound came in with a median lethal dose (LD50) at 336 h in series [3] of 700 mg/kg.

On to `CC(C)(C)NCC(O)CO/N=C1\CCCC\C1=C/c1ccccc1` (racemic) [Example 2, R,S-2-(E)-Phenylmethylene-1-(E)-[3-(1,1-dimethylethyl-amino)-2-hydroxy-propoxyimino]-cyclohexane], for which the median lethal dose (LD50) at 336 h in series [3] is 600 mg/kg. The change in vivo at 4 mg/kg in series [1] was -43%.

Take `COc1ccc(CCNCC(O)CO/N=C2\CCCC\C2=C/c2ccccc2)cc1OC` (racemic) [Example 7]: in series [4], the ED50 was found to be 70 mg/kg and the “TI (therapeutic index)” value was 14. Moreover, the LD50 at 336 h in series [3] is over 1000 mg/kg.

On to `OC(CO/N=C1\CCCC\C1=C/c1ccccc1)CN1CCC(Cc2ccccc2)CC1` (racemic) [Example 54], for which the LD50 at 336 h in series [3] was 600 mg/kg. Besides, in series [1], the ED50 was 3.47 mg/kg and the change in vivo at 4 mg/kg is -56%.

`COc1ccc(Cc2nccc3cc(OC)c(OC)cc23)cc1OC` [Papaverine, reference compound]: in series [2] (280 mg/kg po., mice), the “inhibition (antiperistaltic)” value is recorded as 36%. Further, the 50% effective dose (ED50) in series [2] (po) was over 280 mg/kg.
